Experimental data published in ChEMBL document CHEMBL5052844, “Heteroaryl amides useful as kif18a inhibitors” (2020).

Target: T1, Kinesin-like protein KIF18A (Homo sapiens, UniProt Q8NI77)
T1 sequence (Q8NI77 whole entry): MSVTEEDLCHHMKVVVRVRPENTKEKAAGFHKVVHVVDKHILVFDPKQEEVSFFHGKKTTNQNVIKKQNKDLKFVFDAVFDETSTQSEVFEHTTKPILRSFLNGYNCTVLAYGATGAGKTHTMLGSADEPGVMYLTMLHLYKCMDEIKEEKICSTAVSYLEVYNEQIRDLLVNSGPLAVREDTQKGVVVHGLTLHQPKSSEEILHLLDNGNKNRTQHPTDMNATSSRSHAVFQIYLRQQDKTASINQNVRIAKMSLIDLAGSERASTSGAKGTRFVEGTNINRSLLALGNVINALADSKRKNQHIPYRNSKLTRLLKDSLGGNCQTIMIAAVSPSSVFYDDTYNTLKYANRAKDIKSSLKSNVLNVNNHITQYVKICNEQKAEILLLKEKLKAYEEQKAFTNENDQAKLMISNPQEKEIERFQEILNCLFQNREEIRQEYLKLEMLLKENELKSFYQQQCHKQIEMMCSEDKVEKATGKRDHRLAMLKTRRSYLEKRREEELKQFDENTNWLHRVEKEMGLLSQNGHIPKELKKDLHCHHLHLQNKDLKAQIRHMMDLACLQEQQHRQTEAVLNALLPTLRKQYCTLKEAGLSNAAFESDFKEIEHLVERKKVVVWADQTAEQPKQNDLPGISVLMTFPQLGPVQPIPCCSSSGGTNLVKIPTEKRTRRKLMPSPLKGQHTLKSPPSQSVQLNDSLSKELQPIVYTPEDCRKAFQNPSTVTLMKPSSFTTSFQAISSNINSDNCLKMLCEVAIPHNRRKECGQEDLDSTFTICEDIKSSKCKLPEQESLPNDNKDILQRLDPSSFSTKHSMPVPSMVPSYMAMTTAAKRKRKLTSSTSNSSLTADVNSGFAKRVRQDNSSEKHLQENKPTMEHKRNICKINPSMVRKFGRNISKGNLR
Assay: Inhibition of recombinant His-tagged human KIF18A (1 to 467 residues) expressed in baculovirus expression system assessed as inhibition of microtubule-stimulated ATPase activity preincubated for 15 mins followed by ATP addition and further incubated for 15 mins and measured after 40 mins by ADP-Glo reagent based assay

- IC50: 48 nM
Compound: Cc1cc(NC(=O)c2cnc(S(=O)(=O)C3CC3)cc2N2CCC3(CC2)CC3)nc(N2CCC(F)(F)CC2)n1
